Literature values, collected in patent US20070077220A1, “Stable ascorbic acid compositions” (priority 2005, published 2007).

In the case of `O=C1O[C@H]([C@@H](O)CO)C(O)=C1O` [L-ascorbic acid], the “pK (acid-ionizable hydrogen in water)” value is listed as 4.2.
